Test results published in ChEMBL document CHEMBL4665648, “Potent and selective inhibitors of receptor-interacting protein kinase 1 that lack an aromatic back pocket group” (Bioorg Med Chem Lett, 2019).

Tests used:
[1] = molecular target: Bone morphogenetic protein receptor type-1A (Homo sapiens) (UniProt P36894); assay: Inhibition of tracer 178 binding to recombinant human N-terminal GST-tagged full length BMPR1A expressed in insect expression system at 10 uM incubated for 60 mins by Lanthascreen assay relative to control
[2] = Oral bioavailability in Sprague-Dawley rat at 2 mg/kg; assay type: ADME, organism-based; details: in vivo
[3] = Lipophilicity, logD of compound at pH 7.4; assay type: physicochemical; details: buffer
[4] = molecular target: NUAK family SNF1-like kinase 1 (Homo sapiens) (UniProt O60285); assay: Inhibition of recombinant human His-tagged full length ARK5 expressed in baculovirus expression system using CHKtide as substrate at 10 uM incubated for 60 mins by Adapta assay relative to control
[5] = molecular target: Cyclin-dependent kinase 1/cyclin B1 (Homo sapiens) (UniProt P06493+P14635); assay: Inhibition of recombinant human His-tagged full length CDK1/Cyclin B expressed in baculovirus expression system using Ser/Thr 18 as substrate at 10 uM incubated for 60 mins by Z'-Lyte assay relative to control
[6] = molecular target: CDK2/Cyclin A2 (Homo sapiens) (UniProt P24941+P20248); assay: Inhibition of recombinant human His-tagged full length CDK2/Cyclin A expressed in baculovirus expression system using Ser/Thr 12 as substrate at 10 uM incubated for 60 mins by Z'-Lyte assay relative to control
[7] = molecular target: Dual specificity protein kinase CLK2 (Homo sapiens) (UniProt P49760); assay: Inhibition of recombinant human GST-tagged CLK2 (137 to 498 residues) expressed in baculovirus expression system using Ser/Thr 06 as substrate at 10 uM incubated for 60 mins by Z'-Lyte assay relative to control
[8] = molecular target: Macrophage colony-stimulating factor 1 receptor (Homo sapiens) (UniProt P07333); assay: Inhibition of recombinant human His-tagged CSF1R (538 to 910 residues) expressed in baculovirus expression system using Tyr 01 as substrate at 10 uM incubated for 60 mins by Z'-Lyte assay relative to control
[9] = molecular target: Serine/threonine-protein kinase DCLK2 (Homo sapiens) (UniProt Q8N568); assay: Inhibition of recombinant human GST-tagged full length DCAMKL2 expressed in baculovirus expression system using Ser/Thr 17 as substrate at 10 uM incubated for 60 mins by Z'-Lyte assay relative to control
[10] = molecular target: Tyrosine-protein kinase Fes/Fps (Homo sapiens) (UniProt P07332); assay: Inhibition of recombinant human His-tagged full length FES expressed in baculovirus expression system using Tyr 01 as substrate at 10 uM incubated for 60 mins by Z'-Lyte assay relative to control
[11] = molecular target: Tyrosine-protein kinase FRK (Homo sapiens) (UniProt P42685); assay: Inhibition of recombinant human GST-tagged full length FRK expressed in baculovirus expression system using Tyr 01 as substrate at 10 uM incubated for 60 mins by Z'-Lyte assay relative to control
[12] = molecular target: Homeodomain-interacting protein kinase 4 (Homo sapiens) (UniProt Q8NE63); assay: Inhibition of recombinant human N-terminal GST-tagged HIPK4 expressed in baculovirus expression system using Ser/Thr 18 as substrate at 10 uM incubated for 60 mins by Z'-Lyte assay relative to control
[13] = molecular target: Inhibitor of nuclear factor kappa-B kinase subunit beta (Homo sapiens) (UniProt O14920); assay: Inhibition of recombinant human GST-tagged full length IKKbeta expressed in baculovirus expression system using Ser/Thr 05 as substrate at 10 uM incubated for 60 mins by Z'-Lyte assay relative to control
[14] = molecular target: Serine/threonine-protein kinase 4 (Homo sapiens) (UniProt Q13043); assay: Inhibition of recombinant human GST-tagged full length MST1 expressed in baculovirus expression system using Ser/Thr 01 as substrate at 10 uM incubated for 60 mins by Z'-lyte assay relative to control
[15] = molecular target: Serine/threonine-protein kinase 3 (Homo sapiens) (UniProt Q13188); assay: Inhibition of recombinant human GST-tagged full length MST2 expressed in baculovirus expression system using Ser/Thr 07 as substrate at 10 uM incubated for 60 mins by Z'-lyte assay relative to control
[16] = molecular target: Serine/threonine-protein kinase 24 (Homo sapiens) (UniProt Q9Y6E0); assay: Inhibition of recombinant human GST-tagged full length MST3 expressed in baculovirus expression system using Ser/Thr 07 as substrate at 10 uM incubated for 60 mins by Z'-lyte assay relative to control
[17] = molecular target: Tyrosine-protein kinase Mer (Homo sapiens) (UniProt Q12866); assay: Inhibition of recombinant human GST-tagged MER (578 to 872 residues) expressed in baculovirus expression system using Tyr 02 as substrate at 10 uM incubated for 60 mins by Z'-lyte assay relative to control
[18] = molecular target: Serine/threonine-protein kinase Nek9 (Homo sapiens) (UniProt Q8TD19); assay: Inhibition of recombinant human GST-tagged NEK9 (347 to 732 residues) expressed in baculovirus expression system using Ser/Thr 07 as substrate at 10 uM incubated for 60 mins by Z'-lyte assay relative to control
Homo sapiens = species: Homo sapiens; assay: Inhibition of recombinant human His-tagged PKA (1 to 351 residues) expressed in Escherichia coli expression system using Ser/Thr 01 as substrate at 10 uM incubated for 60 mins by Z'-lyte assay relative to control
[19] = molecular target: 5'-AMP-activated protein kinase catalytic subunit alpha-1 (Homo sapiens) (UniProt Q13131); assay: Inhibition of PRKAA1 (unknown origin) by selectscreen kinase assay; details: dose 10.0 µM, time 60.0 min
[20] = molecular target: Rho-associated protein kinase 1 (Homo sapiens) (UniProt Q13464); assay: Inhibition of recombinant human GST-tagged ROCK1 (1 to 535 residues) expressed in baculovirus expression system using Ser/Thr 07 as substrate at 10 uM incubated for 60 mins by Z'-Lyte assay relative to control
[21] = molecular target: Proto-oncogene tyrosine-protein kinase receptor Ret (Homo sapiens) (UniProt P07949); assay: Inhibition of recombinant human GST-tagged full length RET (658 to 1114 residues) expressed in baculovirus expression system using Tyr 02 as substrate at 10 uM incubated for 60 mins by Z'-Lyte assay relative to control
[22] = molecular target: Proto-oncogene tyrosine-protein kinase ROS (Homo sapiens) (UniProt P08922); assay: Inhibition of recombinant human GST-tagged full length ROS1 (1883 to 2347 residues) expressed in baculovirus expression system using Tyr 01 as substrate at 10 uM incubated for 60 mins by Z'-Lyte assay relative to control
[23] = molecular target: Tyrosine-protein kinase receptor TYRO3 (Homo sapiens) (UniProt Q06418); assay: Inhibition of recombinant human GST-tagged full length RSE (451 to 890 residues) expressed in baculovirus expression system using Tyr 02 as substrate at 10 uM incubated for 60 mins by Z'-Lyte assay relative to control
[24] = molecular target: Wee1-like protein kinase (Homo sapiens) (UniProt P30291); assay: Inhibition of tracer 178 binding to recombinant human N-terminal GST-tagged full length WEE1 expressed in baculovirus expression system at 10 uM incubated for 60 mins by Lanthascreen assay relative to control

Chain of Tyrosine-protein kinase receptor TYRO3 (Homo sapiens) (Q06418 whole entry, the tested form may be a part): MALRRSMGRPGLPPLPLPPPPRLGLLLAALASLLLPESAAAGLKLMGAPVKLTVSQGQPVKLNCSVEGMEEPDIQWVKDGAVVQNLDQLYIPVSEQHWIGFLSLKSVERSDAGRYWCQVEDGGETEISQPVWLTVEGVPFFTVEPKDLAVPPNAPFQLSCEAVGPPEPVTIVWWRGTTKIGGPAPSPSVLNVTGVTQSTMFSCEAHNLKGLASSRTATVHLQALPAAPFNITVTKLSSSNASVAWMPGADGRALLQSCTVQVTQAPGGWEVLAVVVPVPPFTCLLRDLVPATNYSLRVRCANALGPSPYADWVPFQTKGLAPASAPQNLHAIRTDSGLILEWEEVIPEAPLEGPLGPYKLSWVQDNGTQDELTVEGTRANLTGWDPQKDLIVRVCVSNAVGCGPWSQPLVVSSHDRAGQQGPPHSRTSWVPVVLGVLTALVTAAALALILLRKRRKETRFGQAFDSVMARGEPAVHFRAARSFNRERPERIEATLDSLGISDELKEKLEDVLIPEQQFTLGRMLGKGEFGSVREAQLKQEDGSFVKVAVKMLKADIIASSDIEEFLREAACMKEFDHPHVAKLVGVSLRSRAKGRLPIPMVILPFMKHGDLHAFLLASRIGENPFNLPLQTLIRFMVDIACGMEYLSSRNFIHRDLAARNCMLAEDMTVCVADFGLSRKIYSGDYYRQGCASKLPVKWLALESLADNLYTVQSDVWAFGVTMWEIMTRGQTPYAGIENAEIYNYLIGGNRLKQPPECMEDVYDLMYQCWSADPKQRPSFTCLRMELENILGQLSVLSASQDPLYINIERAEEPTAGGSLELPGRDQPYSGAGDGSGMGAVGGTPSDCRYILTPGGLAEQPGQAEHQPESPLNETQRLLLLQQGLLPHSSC
Chain of Macrophage colony-stimulating factor 1 receptor (Homo sapiens) (P07333 whole entry, the tested form may be a part): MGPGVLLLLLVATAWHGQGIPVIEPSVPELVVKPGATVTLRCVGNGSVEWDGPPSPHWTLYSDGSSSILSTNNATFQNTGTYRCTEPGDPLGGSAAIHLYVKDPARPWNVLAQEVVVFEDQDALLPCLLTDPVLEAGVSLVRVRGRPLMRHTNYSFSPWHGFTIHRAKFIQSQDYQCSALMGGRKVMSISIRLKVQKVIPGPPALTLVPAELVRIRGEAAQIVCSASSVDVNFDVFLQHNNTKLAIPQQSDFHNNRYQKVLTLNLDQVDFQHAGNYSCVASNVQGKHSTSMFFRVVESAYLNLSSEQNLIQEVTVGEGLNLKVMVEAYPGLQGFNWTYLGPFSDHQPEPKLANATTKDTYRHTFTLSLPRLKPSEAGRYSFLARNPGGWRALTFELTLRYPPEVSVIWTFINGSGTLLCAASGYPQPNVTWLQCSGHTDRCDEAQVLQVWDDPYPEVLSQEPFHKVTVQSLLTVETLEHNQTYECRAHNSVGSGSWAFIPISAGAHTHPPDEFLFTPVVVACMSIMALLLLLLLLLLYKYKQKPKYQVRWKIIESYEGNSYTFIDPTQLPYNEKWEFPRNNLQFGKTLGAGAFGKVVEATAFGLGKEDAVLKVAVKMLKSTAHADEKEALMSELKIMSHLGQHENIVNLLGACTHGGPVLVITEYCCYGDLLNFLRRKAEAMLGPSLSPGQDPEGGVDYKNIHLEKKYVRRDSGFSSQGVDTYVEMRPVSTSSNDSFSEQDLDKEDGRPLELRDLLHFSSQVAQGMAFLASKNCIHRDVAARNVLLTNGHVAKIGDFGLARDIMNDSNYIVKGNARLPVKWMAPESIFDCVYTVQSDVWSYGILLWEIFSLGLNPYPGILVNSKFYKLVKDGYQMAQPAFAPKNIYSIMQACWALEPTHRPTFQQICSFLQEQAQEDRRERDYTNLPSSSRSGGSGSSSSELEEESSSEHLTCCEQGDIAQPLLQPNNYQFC
Chain of Proto-oncogene tyrosine-protein kinase receptor Ret (Homo sapiens) (P07949 whole entry, the tested form may be a part): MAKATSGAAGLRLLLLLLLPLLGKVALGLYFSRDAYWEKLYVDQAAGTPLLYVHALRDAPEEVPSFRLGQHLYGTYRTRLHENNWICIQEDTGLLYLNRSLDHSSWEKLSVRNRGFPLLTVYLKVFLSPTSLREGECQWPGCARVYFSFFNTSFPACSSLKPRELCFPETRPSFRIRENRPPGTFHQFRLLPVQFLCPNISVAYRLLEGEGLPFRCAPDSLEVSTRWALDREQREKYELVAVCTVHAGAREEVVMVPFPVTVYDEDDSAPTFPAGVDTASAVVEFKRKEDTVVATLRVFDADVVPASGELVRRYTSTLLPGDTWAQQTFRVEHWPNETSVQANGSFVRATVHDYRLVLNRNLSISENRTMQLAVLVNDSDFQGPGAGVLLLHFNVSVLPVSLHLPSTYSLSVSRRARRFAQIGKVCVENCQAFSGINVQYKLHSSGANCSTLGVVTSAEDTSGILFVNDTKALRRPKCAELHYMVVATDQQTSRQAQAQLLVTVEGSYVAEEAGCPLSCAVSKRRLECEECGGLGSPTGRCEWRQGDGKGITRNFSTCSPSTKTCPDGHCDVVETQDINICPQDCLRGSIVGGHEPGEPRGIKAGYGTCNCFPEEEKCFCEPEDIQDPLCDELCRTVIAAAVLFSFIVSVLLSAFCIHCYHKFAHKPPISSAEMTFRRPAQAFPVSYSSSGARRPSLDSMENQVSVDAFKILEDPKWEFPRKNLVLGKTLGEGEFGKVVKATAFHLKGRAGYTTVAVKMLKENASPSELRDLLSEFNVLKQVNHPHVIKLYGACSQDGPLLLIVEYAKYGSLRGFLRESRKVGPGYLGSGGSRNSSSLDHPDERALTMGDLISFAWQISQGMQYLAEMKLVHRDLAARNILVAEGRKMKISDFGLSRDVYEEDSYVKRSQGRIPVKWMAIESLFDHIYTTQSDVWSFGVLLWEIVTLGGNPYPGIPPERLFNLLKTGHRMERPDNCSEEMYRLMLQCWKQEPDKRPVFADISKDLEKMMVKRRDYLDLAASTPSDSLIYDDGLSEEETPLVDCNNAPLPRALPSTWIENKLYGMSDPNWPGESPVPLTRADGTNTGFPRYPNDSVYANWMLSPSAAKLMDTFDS
Chain of Dual specificity protein kinase CLK2 (Homo sapiens) (P49760 whole entry, looked up, the tested form may be a part): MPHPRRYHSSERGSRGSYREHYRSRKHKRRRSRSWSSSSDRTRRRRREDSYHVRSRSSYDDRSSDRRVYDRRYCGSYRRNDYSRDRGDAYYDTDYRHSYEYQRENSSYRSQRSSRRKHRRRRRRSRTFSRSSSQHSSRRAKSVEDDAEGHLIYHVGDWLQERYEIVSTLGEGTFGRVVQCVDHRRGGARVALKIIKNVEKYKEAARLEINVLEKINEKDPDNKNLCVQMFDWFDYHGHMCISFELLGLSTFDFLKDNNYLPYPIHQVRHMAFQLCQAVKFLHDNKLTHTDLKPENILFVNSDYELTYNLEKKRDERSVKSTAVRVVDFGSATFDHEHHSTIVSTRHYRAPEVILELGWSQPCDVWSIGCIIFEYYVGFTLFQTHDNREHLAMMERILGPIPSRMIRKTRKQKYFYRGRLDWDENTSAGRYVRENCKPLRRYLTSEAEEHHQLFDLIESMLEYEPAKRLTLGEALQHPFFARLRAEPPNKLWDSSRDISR
Chain of 5'-AMP-activated protein kinase catalytic subunit alpha-1 (Homo sapiens) (Q13131 whole entry, looked up, the tested form may be a part): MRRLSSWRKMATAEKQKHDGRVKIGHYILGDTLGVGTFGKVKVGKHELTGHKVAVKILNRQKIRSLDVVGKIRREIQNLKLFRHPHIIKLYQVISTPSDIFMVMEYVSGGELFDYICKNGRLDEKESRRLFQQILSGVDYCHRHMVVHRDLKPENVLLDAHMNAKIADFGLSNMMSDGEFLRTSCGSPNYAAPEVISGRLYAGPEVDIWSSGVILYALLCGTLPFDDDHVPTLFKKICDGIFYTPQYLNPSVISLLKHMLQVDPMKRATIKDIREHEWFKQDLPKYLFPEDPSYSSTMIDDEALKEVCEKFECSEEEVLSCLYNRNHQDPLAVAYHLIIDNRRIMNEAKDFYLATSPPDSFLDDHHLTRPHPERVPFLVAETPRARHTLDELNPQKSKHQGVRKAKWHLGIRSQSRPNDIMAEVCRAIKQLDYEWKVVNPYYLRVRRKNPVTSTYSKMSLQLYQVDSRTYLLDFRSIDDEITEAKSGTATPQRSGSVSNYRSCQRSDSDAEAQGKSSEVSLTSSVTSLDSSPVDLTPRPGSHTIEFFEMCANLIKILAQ
Chain of Serine/threonine-protein kinase 3 (Homo sapiens) (Q13188 whole entry): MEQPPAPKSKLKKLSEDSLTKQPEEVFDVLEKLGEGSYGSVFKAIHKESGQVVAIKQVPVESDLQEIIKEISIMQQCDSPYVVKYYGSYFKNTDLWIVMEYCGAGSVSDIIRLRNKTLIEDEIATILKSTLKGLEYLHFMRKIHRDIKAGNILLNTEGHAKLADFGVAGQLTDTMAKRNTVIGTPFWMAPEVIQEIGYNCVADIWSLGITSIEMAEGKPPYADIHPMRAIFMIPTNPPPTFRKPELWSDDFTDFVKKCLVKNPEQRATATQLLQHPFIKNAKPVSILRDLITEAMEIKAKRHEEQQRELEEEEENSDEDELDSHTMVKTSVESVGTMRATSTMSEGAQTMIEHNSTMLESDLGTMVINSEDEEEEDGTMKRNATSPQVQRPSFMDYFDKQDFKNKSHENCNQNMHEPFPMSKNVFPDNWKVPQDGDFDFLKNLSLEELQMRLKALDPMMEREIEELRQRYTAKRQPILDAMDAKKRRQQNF
Chain of Serine/threonine-protein kinase 4 (Homo sapiens) (Q13043 whole entry): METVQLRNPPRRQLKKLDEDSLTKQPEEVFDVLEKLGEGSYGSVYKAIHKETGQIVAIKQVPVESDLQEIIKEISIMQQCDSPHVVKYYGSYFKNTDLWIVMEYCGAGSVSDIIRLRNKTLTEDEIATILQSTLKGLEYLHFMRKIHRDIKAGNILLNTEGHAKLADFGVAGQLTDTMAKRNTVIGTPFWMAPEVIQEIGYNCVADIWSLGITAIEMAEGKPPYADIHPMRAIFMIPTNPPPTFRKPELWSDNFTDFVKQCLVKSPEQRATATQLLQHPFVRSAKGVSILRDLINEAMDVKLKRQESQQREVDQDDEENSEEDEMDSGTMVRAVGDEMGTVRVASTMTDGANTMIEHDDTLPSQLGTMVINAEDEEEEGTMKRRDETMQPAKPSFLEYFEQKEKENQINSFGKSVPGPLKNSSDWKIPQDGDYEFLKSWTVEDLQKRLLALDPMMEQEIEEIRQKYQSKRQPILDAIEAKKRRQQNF

CN1C(=O)[C@@H](NC(=O)c2n[nH]c3ncc(C(F)(F)C(F)(F)F)cc23)COc2ccccc21
inhibition [1]: 5% | bioavailability [2]: 63% | logD [3]: 4.1 | inhibition [4]: 8.5% | inhibition [5]: 3% | inhibition [6]: 13% | inhibition [7]: 24% | inhibition [8]: 15% | inhibition [9]: -3.5% | inhibition [10]: 5.5% | inhibition [11]: 5% | inhibition [12]: 17.5% | inhibition [13]: 0.5% | inhibition [14]: 7.5% | inhibition [15]: 1.5% | inhibition [16]: 6% | inhibition [17]: -4% | inhibition [18]: 3% | inhibition (Homo sapiens): -1% | inhibition [19]: 3% | inhibition [20]: -8.5% | inhibition [21]: 4% | inhibition [22]: -4% | inhibition [23]: 1.5% | inhibition [24]: 4%
